# In PMC13089524, “Development of SYK NanoBRET cellular target engagement assays for gain–of–function variants” (Frontiers in chemical biology, 2024):
# Assays:
# SYK = biological target: T1, SYK (Homo sapiens, UniProt P43405); assay: Eurofins DiscoverX SYK enzymatic radiometric assay; assay type: biochemical; settings: for IC50: Km value for ATP, 9-pt dose-response
# T1 construct: purchased Eurofins DiscoverX (contract assay service)
# Excerpt: Eurofins kinase enzymatic radiometric assays were executed at the Km value for ATP in dose–response (9-pt curve) format for SYK, included in Table 1 as enzymatic IC50 values.
# SYK(WT)-NL = biological target: T2, SYK(WT)-NL (Homo sapiens, UniProt P43405); assay: NanoBRET assay in digitonin permeabilized HEK293 cells, SYK(WT)-NL; assay type: cell-based; settings: C-terminal NL fusion, tracer 0.5, 1, 2 μM
# T2 construct: SYK tracers enable BRET with full-length SYK(WT) after digitonin permeabilization; host or cells: HEK293
# Experimental: We performed NanoBRET tracer optimization to determine if the SYK tracers could effectively generate a BRET signal. […] To enable the NanoBRET assay using tracer 8 with cells permeabilized by digitonin, a tracer dose–response study was performed for each SYK(GoF) variant and SYK(WT) (Figure 3A), followed by tracer titration experiments (Figure 3B; Supplementary Figure S3). […] Initially, we determined the EC50 of tracer 8 for each SYK(GoF) variant and SYK(WT). […] Plates were incubated for 25 min at room temperature if digitonin was added or for 2 h at 37°C in 5% CO2 for the intact cell NanoBRET assay. […] For intact live cells in a 96-well plate, the 3X stock solution was prepared with 30 μL of NanoBRET NanoGlo substrate, 10 μL of extracellular NanoLuc inhibitor, and 4,960 μL of Opti-MEM without phenol red. For digitonin permeabilized live cells in a 96-well plate, the 3X stock solution was prepared with 30 μL of NanoBRET NanoGlo substrate and 4,970 μL of Opti-MEM without phenol red. Raw milliBRET units (mBU) were read on a GloMax Discover system (Promega) with a donor emission wavelength of 450 nm and an acceptor emission wavelength of 600 nm. mBU were calculated by dividing the acceptor emission values (600 nm) by the donor emission values (450 nm). For NanoBRET studies with SYK, background corrected mBU were calculated by subtracting the no tracer wells from the tracer-containing wells and multiplying by 1,000.
# HEK293 cells were transfected with constructs of SYK(WT) or SYK(KD) tagged with NL on the C- or N-terminus and SYK GoF variants tagged with NL on the C-terminus. Tracer 8 (20X) was prepared from a 400 μM stock solution in DMSO with tracer dilution buffer (Promega, #N291B) and 20% DMSO, with a final assay plate concentration of 1% DMSO. 5 μL of 8 (20X) was added to each well, with exception of the no tracer control wells, with final plate concentrations of 0.5, 1, and 2 μM. 10 μL of digitonin (Fisher, 10X, 500 μg/mL) was added to specific wells to permeabilize the cells. The 10X digitonin stock was prepared by diluting a 40X DMSO solution of digitonin with room temperature Opti-MEM without phenol red, for a final assay plate concentration of 1% DMSO. SYK inhibitor stock solutions of MRL-SYKi (10X) were prepared from 10 mM DMSO stock solutions with room temperature Opti-MEM without phenol red, for final assay plate concentrations of 10 μM. Plates were incubated for 25 min at room temperature if digitonin was added or for 2 h at 37°C in 5% CO2 for the intact cell NanoBRET assay. Two technical replicates were plotted in a bar chart with the standard deviation represented as error bars on Graphpad Prism.
# SYK(KD)-NL or NL-SYK(KD) = biological target: T3, SYK(KD)-NL or NL-SYK(KD) (Homo sapiens, UniProt P43405); assay: NanoBRET tracer optimization with SYK kinase domain only constructs; assay type: cell-based; settings: with or without digitonin, N- or C-terminal NL
# T3 construct: N- and C-terminally-tagged NL SYK kinase domain constructs lacking the tandem SH2 domains were prepared; expressed in transfected cells; host or cells: HEK293
# Experimental: HEK293 cells were transfected with constructs of SYK (WT, KD, and GoF variants) tagged with NL on the N- or C-terminus as previously described ([Wells et al., 2021]). Constructs for NanoBRET measurements of SYK(WT) (NL-SYK(WT) and SYK(WT)-NL) and SYK GoF variants (SYK(S550Y)-NL, SYK(S550F)-NL, SYK(P342T)-NL, SYK(M450I)-NL, and SYK(A353T)-NL) were kindly provided by Promega. NL orientations used in the respective assays are indicated. Cells were plated in 96-well tissue culture-treated plates (Corning, #3917) at a cell density of 2 × 10^5 cells/mL, with a total volume of 100 μL per well in DMEM +10% FBS. After 16 h, the media was aspirated from the plate and replaced with room temperature Opti-MEM without phenol red (Gibco, #11058021), 100 μL in no tracer wells; 95 μL in tracer only wells; 90 μL in no tracer wells and with digitonin treated plates, 90 μL in no tracer wells; 85 μL in tracer only wells; 80 μL in no tracer wells. Plates were incubated for 25 min at room temperature if digitonin was added or for 2 h at 37°C in 5% CO2 for the intact cell NanoBRET assay. NanoBRET plates were read after the addition of 50 μL of a stock solution (3X) containing NanoBRET NanoGlo substrate (Promega, #N2161), extracellular NanoLuc inhibitor (Promega, #N2161) when reading assay plates performed in intact live cells, and Opti-MEM without phenol red (Gibco, #11058021). For intact live cells in a 96-well plate, the 3X stock solution was prepared with 30 μL of NanoBRET NanoGlo substrate, 10 μL of extracellular NanoLuc inhibitor, and 4,960 μL of Opti-MEM without phenol red. For digitonin permeabilized live cells in a 96-well plate, the 3X stock solution was prepared with 30 μL of NanoBRET NanoGlo substrate and 4,970 μL of Opti-MEM without phenol red. Raw milliBRET units (mBU) were read on a GloMax Discover system (Promega) with a donor emission wavelength of 450 nm and an acceptor emission wavelength of 600 nm. mBU were calculated by dividing the acceptor emission values (600 nm) by the donor emission values (450 nm). For NanoBRET studies with SYK, background corrected mBU were calculated by subtracting the no tracer wells from the tracer-containing wells and multiplying by 1,000. Where the results are reported as a BRET fold change, this is the BRET ratio for the vehicle-treated sample divided by BRET for the inhibitor-treated sample.
# HEK293 cells were transfected with constructs of SYK(WT) or SYK(KD) tagged with NL on the C- or N-terminus and SYK GoF variants tagged with NL on the C-terminus. Tracer 8 (20X) was prepared from a 400 μM stock solution in DMSO with tracer dilution buffer (Promega, #N291B) and 20% DMSO, with a final assay plate concentration of 1% DMSO. […]
# [1] = tested on: FGR, MLK1, YES, FLT3, PAK5, LYN, SRC, and LCK; settings: ref Coffey et al., 2012, Spurgeon et al., 2013, cited from earlier work
IC50 (SYK),BRET signal (background subtracted) (SYK(WT)-NL),BRET signal (SYK(KD)-NL or NL-SYK(KD)),decrease in potency compared to the parent inhibitor MRL-SYKi (SYK; ratio of enzymatic IC50),Compound,inhibition of eight kinases ([1]; at 300 nM),"IC50 ([1]; dose-response, read-out: enzymatic IC50 of the closest off-target)",closest off-target less potent compared to SYK [1]
2400 nM,4 mBU,did not generate a BRET signal,–,O=C(CCc1ccc2n1[B-](F)(F)[N+]1=C(c3ccc[nH]3)C=CC1=C2)NCCOCCOCCOCCC(=O)N1CCN(c2ccc(Nc3nc(-c4ccc5cn[nH]c5c4)cn4ccnc34)cc2)CC1 [Tracer 2],–,–,–
1100 nM,> 10 mBU,did not generate a BRET signal,–,CC1(C)Oc2ccc(Nc3nc(Nc4cccc(OCC(=O)NCCOCCOCCOCCNC(=O)CCc5ccc6n5[B-](F)(F)[N+]5=C(c7ccc[nH]7)C=CC5=C6)c4)ncc3F)nc2NC1=O [Tracer 5],–,–,–
1400 nM,> 10 mBU,did not generate a BRET signal,–,CC1(C)Oc2ccc(Nc3nc(Nc4cccc(OCC(=O)NCCNC(=O)CCc5ccc6n5[B-](F)(F)[N+]5=C(c7ccc[nH]7)C=CC5=C6)c4)ncc3F)nc2NC1=O [Tracer 6],–,–,–
470 nM,> 10 mBU,–,15.6 fold,Cc1cc(Nc2nccc(C)n2)cc(-c2cnc([C@@]3(O)CC[C@H](C(=O)NCCOCCOCCOCCNC(=O)CCc4ccc5n4[B-](F)(F)[N+]4=C(c6ccc[nH]6)C=CC4=C5)C(C)(C)C3)s2)c1 [Tracer 7],–,–,–

# More lines, now with the values behind:
Compound,IC50 (SYK),BRET signal (background subtracted) (SYK(WT)-NL),BRET signal (SYK(KD)-NL or NL-SYK(KD)),decrease in potency compared to the parent inhibitor MRL-SYKi (SYK; ratio of enzymatic IC50),inhibition of eight kinases ([1]; at 300 nM),"IC50 ([1]; dose-response, read-out: enzymatic IC50 of the closest off-target)",closest off-target less potent compared to SYK [1]
Cn1ncc2ccc(-c3cn4ccnc4c(Nc4ccc(N5CCNCC5)cc4)n3)cc21 [Tracer 3],97 nM,–,–,–,–,–,–
Cn1ncc2ccc(-c3cn4ccnc4c(Nc4ccc(N5CCN(C(=O)CCc6ccc7n6[B-](F)(F)[N+]6=C(c8ccc[nH]8)C=CC6=C7)CC5)cc4)n3)cc21 [Tracer 4],> 10000 nM,did not generate a BRET signal,did not generate a BRET signal,–,–,–,–
NC(=O)c1cnc(N[C@@H]2CCCC[C@@H]2N)nc1Nc1cccc(-n2nccn2)c1 [Tracer P505-15],–,–,–,–,greater than 80%,81 nM,81 fold
